{
  "source": "patent US5869524A",
  "about": "“Indene inhibitors of COX-2” (American Home Products Corporation, priority 1997, dated 1999)",
  "key": {"[1]": {"target": "T1, rhCOX-2 (Homo sapiens, UniProt P35354)", "T1 construct": "made in house; host or cells: Sf9 or CHO cells (microsomal preparation)", "T1 sequence (P35354 18-604)": "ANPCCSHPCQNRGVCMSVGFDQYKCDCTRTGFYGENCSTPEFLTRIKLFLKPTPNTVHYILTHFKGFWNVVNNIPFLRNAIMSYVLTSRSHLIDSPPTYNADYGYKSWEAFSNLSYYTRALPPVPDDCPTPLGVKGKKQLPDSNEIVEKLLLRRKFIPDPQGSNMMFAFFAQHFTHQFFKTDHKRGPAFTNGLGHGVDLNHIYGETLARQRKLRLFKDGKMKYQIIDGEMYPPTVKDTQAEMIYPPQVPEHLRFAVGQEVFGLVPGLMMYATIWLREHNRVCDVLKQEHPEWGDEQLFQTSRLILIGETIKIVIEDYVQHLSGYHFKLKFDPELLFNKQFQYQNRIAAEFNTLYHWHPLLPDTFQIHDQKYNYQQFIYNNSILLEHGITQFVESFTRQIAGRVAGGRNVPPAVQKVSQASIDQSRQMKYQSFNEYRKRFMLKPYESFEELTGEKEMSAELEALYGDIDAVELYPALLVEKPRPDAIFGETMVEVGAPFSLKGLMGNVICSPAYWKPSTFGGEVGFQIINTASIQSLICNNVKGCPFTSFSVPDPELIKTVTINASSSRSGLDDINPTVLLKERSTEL", "experiment": "Inhibition of rhCOX-2 (PGF2α by EIA, microsomal human recombinant enzyme)", "assay_type": "biochemical", "settings": "value in parentheses = IC50; 30 min preincubation, 30 μM arachidonic acid, 37° C., pH 7.8; read-out: % inh of rhCOX-2 (IC50)", "procedure": "A representative compound of this invention was evaluated for inhibition of COX-2 and COX-1 enzymes as follows. Human COX-1 and COX-2 cDNAs were cloned from human monocytes, untreated and LPS-treated respectively, by RT-PCR using oligonucleotide primers based on published hCOX-1 and hCOX-2 sequences (Jones et al., J. Biol. Chem., 268, 9049 (1993)). The cDNAs were then transfected into either Sf9 or CHO cells and subsequently converted into a microsomal preparation as described by Glaser et al (Eur. J. Pharmacol. 281, 107-111 (1995)). The microsomal human recombinant enzymes were diluted with buffer (100 mM Tris, pH 7.8 at 37° C.) containing 0.5 mM phenol (964 μl total volume). The enzyme preparations were preincubated with vehicle (DMSO) or compounds in DMSO (1% DMSO in final assay) for 30 min at 37° C. Excess hematin was added 1 min prior to initiation of reaction ([…] final hematin) with 30 μM arachidonic acid (sodium salt). […]\nThe reaction was incubated for 35 sec (maximum level of PGH2 accumulation as determined from time course studies), and terminated by addition of […] of SnCl2 (1 mg/ml) in 0.1N HCl. PGH2 is quantitatively converted to PGF2a by this reaction (50% efficiency of total conversion). […] Combined ethyl acetate extracts were dried under N2 (g) and redissolved in EIA buffer (2.0 ml), and PGF2α was quantified by EIA."}, "[2]": {"test_system": "Alzheimer's disease", "settings": "Rogers et al. 1993; cited from earlier work"}, "[3]": {"test_system": "COX-2", "settings": "cited from earlier work; for inhibition of COX-1 and COX-2, selectivity in words: literature"}, "[4]": {"settings": "Futaki et al. 1993; cited from earlier work"}},
  "data": [
    {"smiles": "CSc1ccc(/C=C2/C(C)=C(CC(=O)C3=C(O)COC3=O)c3cc(F)ccc32)cc1", "note": "[Example 1, (Z)-3-[[5-Fluoro-2-methyl-1-[[4-(methylthio)phenyl]methylene]-1H-inden-3-yl]acetyl]-4-hydroxy-2(5H)-furanone]", "values": [
      {"measurement": "IC50", "setting": "[1]", "result": 27, "unit": "nM"}
    ]},
    {"smiles": "COc1ccc2c(c1)c(CC(=O)O)c(C)n2C(=O)c1ccc(Cl)cc1", "note": "[Indomethacin]", "values": [
      {"measurement": "treatment of Alzheimer's disease", "setting": "[2]", "result": "useful in the treatment of Alzheimer's disease"},
      {"measurement": "inhibition of COX-1 and COX-2, selectivity in words", "setting": "[3]", "result": "relatively non-selective inhibitor of COX-1 and COX-2"}
    ]},
    {"smiles": "CS(=O)(=O)Nc1ccc([N+](=O)[O-])cc1OC1CCCCC1", "note": "[N-(2-cyclohexyloxy-4-nitrophenyl)methanesulfonamide]", "values": [
      {"measurement": "antiinflammatory effect", "setting": "[4]", "result": "effective antiinflammatory"},
      {"measurement": "gastric side effects", "setting": "[4]", "result": "lacks gastric side effects"},
      {"measurement": "inhibition of COX-1 and COX-2, selectivity in words", "setting": "[3]", "result": "selective COX-2 inhibitor"}
    ]},
    {"smiles": "CCc1cccc2c3c([nH]c12)C(CC)(CC(=O)O)OCC3", "note": "(stereo not shown) [etodolac]", "values": [
      {"measurement": "selectivity for inhibition of COX-2", "setting": "[3]; fold, reported by Glaser et al. 1995", "result": "tenfold"}
    ]}
  ]
}
